Assay results as given in PubChem BioAssay AID1963979 (Molecular Pharmacology Branch, DTP, NCI, 2024).
pIC50: −log10 of the molar value.

Test system: 361931-004-R-J1-PDC multicell spheroid viability
Assay: Anticancer human tumor 361931-004-R-J1-PDC patient-derived colon adenocarcinoma cell line growth inhibition [PI3K]
Conditions: for pIC50: curve of first compound; for viability, T/C: stronger effect = lower value; active means viability on the fitted dose curve at most 10% of control; inactive means the rest
Summary of the method: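 Stroma-containing spheroids: tumor line, pooled-donor HUVEC, hMSC. Treatments: targeted agents with PI3K inhibitors. Dosing: clinically relevant, half-log spacing, 10 microM ceiling without known Cmax. Read-out: cell viability.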

[1] = second compound 0.0316 µM, first compound 0.000316 µM
[2] = second compound 0.0316 µM, first compound 0.001 µM
[3] = second compound 0.0316 µM, first compound 0.00316 µM
[4] = second compound 0.0316 µM, first compound 0.01 µM
[5] = second compound 0.0316 µM, first compound 0.0316 µM
[6] = second compound 0.0316 µM, first compound 0.1 µM
[7] = second compound 0.1 µM, first compound 0.000316 µM
[8] = second compound 0.1 µM, first compound 0.001 µM
[9] = second compound 0.1 µM, first compound 0.00316 µM
[10] = second compound 0.1 µM, first compound 0.01 µM
[11] = second compound 0.1 µM, first compound 0.0316 µM
[12] = second compound 0.1 µM, first compound 0.1 µM
[13] = second compound 0.316 µM, first compound 0.000316 µM
[14] = second compound 0.316 µM, first compound 0.001 µM
[15] = second compound 0.316 µM, first compound 0.00316 µM
[16] = second compound 0.316 µM, first compound 0.01 µM
[17] = second compound 0.316 µM, first compound 0.0316 µM
[18] = second compound 0.316 µM, first compound 0.1 µM
[19] = second compound 1 µM, first compound 0.000316 µM
[20] = second compound 1 µM, first compound 0.001 µM
[21] = second compound 1 µM, first compound 0.00316 µM
[22] = second compound 1 µM, first compound 0.01 µM
[23] = second compound 1 µM, first compound 0.0316 µM
[24] = second compound 1 µM, first compound 0.1 µM
[25] = second compound 3.16 µM, first compound 0.000316 µM
[26] = second compound 3.16 µM, first compound 0.001 µM
[27] = second compound 3.16 µM, first compound 0.00316 µM
[28] = second compound 3.16 µM, first compound 0.01 µM
[29] = second compound 3.16 µM, first compound 0.0316 µM
[30] = second compound 3.16 µM, first compound 0.1 µM
[31] = second compound 10 µM, first compound 0.000316 µM
[32] = second compound 10 µM, first compound 0.001 µM
[33] = second compound 10 µM, first compound 0.00316 µM
[34] = second compound 10 µM, first compound 0.01 µM
[35] = second compound 10 µM, first compound 0.0316 µM
[36] = second compound 10 µM, first compound 0.1 µM
[37] = second compound 0.0316 µM, first compound 0.316 µM
[38] = second compound 0.0316 µM, first compound 1 µM
[39] = second compound 0.0316 µM, first compound 3.16 µM
[40] = second compound 0.0316 µM, first compound 10 µM
[41] = second compound 0.1 µM, first compound 0.316 µM
[42] = second compound 0.1 µM, first compound 1 µM
[43] = second compound 0.1 µM, first compound 3.16 µM
[44] = second compound 0.1 µM, first compound 10 µM
[45] = second compound 0.316 µM, first compound 0.316 µM
[46] = second compound 0.316 µM, first compound 1 µM
[47] = second compound 0.316 µM, first compound 3.16 µM
[48] = second compound 0.316 µM, first compound 10 µM
[49] = second compound 1 µM, first compound 0.316 µM
[50] = second compound 1 µM, first compound 1 µM
[51] = second compound 1 µM, first compound 3.16 µM
[52] = second compound 1 µM, first compound 10 µM
[53] = second compound 3.16 µM, first compound 0.316 µM
[54] = second compound 3.16 µM, first compound 1 µM
[55] = second compound 3.16 µM, first compound 3.16 µM
[56] = second compound 3.16 µM, first compound 10 µM
[57] = second compound 10 µM, first compound 0.316 µM
[58] = second compound 10 µM, first compound 1 µM
[59] = second compound 10 µM, first compound 3.16 µM
[60] = second compound 10 µM, first compound 10 µM
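Further: spheroids exposed to agents for seven days before readout.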

CC(=O)c1c(C)c2cnc(Nc3ccc(N4CCNCC4)cn3)nc2n(C2CCCC2)c1=O + CC(Nc1ncnc2nc[nH]c12)c1cc2cccc(Cl)c2c(=O)n1-c1ccccc1
< 7.00: pIC50 (second compound 0.0316 µM) | pIC50 (second compound 0.1 µM) | pIC50 (second compound 0.316 µM) | pIC50 (second compound 1 µM) | pIC50 (second compound 3.16 µM) | pIC50 (second compound 10 µM)
inactive: viability, T/C [1] 98.3% | viability, T/C [2] 103% | viability, T/C [3] 97.5% | viability, T/C [4] 97.2% | viability, T/C [5] 102% | viability, T/C [6] 93.2% | viability, T/C [7] 103% | viability, T/C [8] 103% | viability, T/C [9] 98.4% | viability, T/C [10] 104% | viability, T/C [11] 99.5% | viability, T/C [12] 98.4% | viability, T/C [13] 108% | viability, T/C [14] 97.7% | viability, T/C [15] 105% | viability, T/C [16] 97.9% | viability, T/C [17] 103% | viability, T/C [18] 97.5% | viability, T/C [19] 101% | viability, T/C [20] 100% | viability, T/C [21] 101% | viability, T/C [22] 105% | viability, T/C [23] 108% | viability, T/C [24] 89% | viability, T/C [25] 96.2% | viability, T/C [26] 100% | viability, T/C [27] 97.2% | viability, T/C [28] 93.7% | viability, T/C [29] 100% | viability, T/C [30] 81.3% | viability, T/C [31] 92.7% | viability, T/C [32] 107% | viability, T/C [33] 96.5% | viability, T/C [34] 94.1% | viability, T/C [35] 101% | viability, T/C [36] 80.5%

CC(C)n1nc(-c2ccc3oc(N)nc3c2)c2c(N)ncnc21 + CC(Nc1ncnc2nc[nH]c12)c1cc2cccc(Cl)c2c(=O)n1-c1ccccc1
< 7.00: pIC50 (second compound 0.0316 µM) | pIC50 (second compound 0.1 µM) | pIC50 (second compound 0.316 µM) | pIC50 (second compound 1 µM) | pIC50 (second compound 3.16 µM) | pIC50 (second compound 10 µM)
inactive: viability, T/C [1] 103% | viability, T/C [2] 107% | viability, T/C [3] 105% | viability, T/C [4] 104% | viability, T/C [5] 108% | viability, T/C [6] 77.9% | viability, T/C [7] 111% | viability, T/C [8] 106% | viability, T/C [9] 104% | viability, T/C [10] 99.1% | viability, T/C [11] 107% | viability, T/C [12] 81.5% | viability, T/C [13] 98.2% | viability, T/C [14] 103% | viability, T/C [15] 108% | viability, T/C [16] 109% | viability, T/C [17] 115% | viability, T/C [18] 74.8% | viability, T/C [19] 97.4% | viability, T/C [20] 105% | viability, T/C [21] 104% | viability, T/C [22] 107% | viability, T/C [23] 105% | viability, T/C [24] 72.3% | viability, T/C [25] 109% | viability, T/C [26] 106% | viability, T/C [27] 100% | viability, T/C [28] 96.2% | viability, T/C [29] 100% | viability, T/C [30] 72.4% | viability, T/C [31] 107% | viability, T/C [32] 107% | viability, T/C [33] 107% | viability, T/C [34] 104% | viability, T/C [35] 103% | viability, T/C [36] 63.5%

CC1(C)CCC(CN2CCN(c3ccc(C(=O)NS(=O)(=O)c4ccc(NCC5CCOCC5)c([N+](=O)[O-])c4)c(Oc4cnc5[nH]ccc5c4)c3)CC2)=C(c2ccc(Cl)cc2)C1 + CC(Nc1ncnc2nc[nH]c12)c1cc2cccc(Cl)c2c(=O)n1-c1ccccc1
5.27: pIC50 (second compound 0.0316 µM)
5.28: pIC50 (second compound 3.16 µM)
5.29: pIC50 (second compound 1 µM)
active: viability, T/C [40] 3.37% | viability, T/C [44] 3.38% | viability, T/C [48] 3.3% | viability, T/C [52] 3.62% | viability, T/C [56] 3.29% | viability, T/C [60] 3.09%
inactive: viability, T/C [5] 105% | viability, T/C [6] 98.3% | viability, T/C [37] 104% | viability, T/C [38] 93.4% | viability, T/C [39] 89.4% | viability, T/C [11] 110% | viability, T/C [12] 95.2% | viability, T/C [41] 97.7% | viability, T/C [42] 102% | viability, T/C [43] 81.2% | viability, T/C [17] 108% | viability, T/C [18] 97.2% | viability, T/C [45] 106% | viability, T/C [46] 106% | viability, T/C [47] 81.7% | viability, T/C [23] 103% | viability, T/C [24] 99.2% | viability, T/C [49] 106% | viability, T/C [50] 102% | viability, T/C [51] 84% | viability, T/C [29] 102% | viability, T/C [30] 109% | viability, T/C [53] 96% | viability, T/C [54] 96.5% | viability, T/C [55] 86.8% | viability, T/C [35] 109% | viability, T/C [36] 99.6% | viability, T/C [57] 107% | viability, T/C [58] 107% | viability, T/C [59] 80.1%
5.30: pIC50 (second compound 0.1 µM) | pIC50 (second compound 0.316 µM) | pIC50 (second compound 10 µM)

CCCS(=O)(=O)Nc1ccc(F)c(C(=O)c2c[nH]c3ncc(-c4ccc(Cl)cc4)cc23)c1F + CC(Nc1ncnc2nc[nH]c12)c1cc2cccc(Cl)c2c(=O)n1-c1ccccc1
5.31: pIC50 (second compound 10 µM)
active: viability, T/C [40] 7.53% | viability, T/C [44] 6.96% | viability, T/C [48] 6.91% | viability, T/C [52] 7.4% | viability, T/C [56] 7.12% | viability, T/C [60] 7.3%
inactive: viability, T/C [5] 111% | viability, T/C [6] 97.4% | viability, T/C [37] 96.4% | viability, T/C [38] 97.3% | viability, T/C [39] 84.7% | viability, T/C [11] 108% | viability, T/C [12] 101% | viability, T/C [41] 94.3% | viability, T/C [42] 89.2% | viability, T/C [43] 84.9% | viability, T/C [17] 105% | viability, T/C [18] 101% | viability, T/C [45] 96.1% | viability, T/C [46] 90.9% | viability, T/C [47] 92.1% | viability, T/C [23] 100% | viability, T/C [24] 99.7% | viability, T/C [49] 94.9% | viability, T/C [50] 96.8% | viability, T/C [51] 83.5% | viability, T/C [29] 98.8% | viability, T/C [30] 102% | viability, T/C [53] 103% | viability, T/C [54] 95.5% | viability, T/C [55] 90.1% | viability, T/C [35] 99.3% | viability, T/C [36] 101% | viability, T/C [57] 98.1% | viability, T/C [58] 88.3% | viability, T/C [59] 78.1%
5.28: pIC50 (second compound 0.0316 µM) | pIC50 (second compound 0.1 µM) | pIC50 (second compound 1 µM)
5.26: pIC50 (second compound 3.16 µM)
5.25: pIC50 (second compound 0.316 µM)

C[C@@H](NC(=O)c1ncnc(N)c1Cl)c1ncc(C(=O)Nc2cc(C(F)(F)F)c(Cl)cn2)s1 + CC(Nc1ncnc2nc[nH]c12)c1cc2cccc(Cl)c2c(=O)n1-c1ccccc1
inactive: viability, T/C [5] 105% | viability, T/C [6] 102% | viability, T/C [37] 99.2% | viability, T/C [38] 94.1% | viability, T/C [39] 104% | viability, T/C [40] 98% | viability, T/C [11] 101% | viability, T/C [12] 101% | viability, T/C [41] 96% | viability, T/C [42] 95.3% | viability, T/C [43] 104% | viability, T/C [44] 94.6% | viability, T/C [17] 105% | viability, T/C [18] 103% | viability, T/C [45] 107% | viability, T/C [46] 104% | viability, T/C [47] 106% | viability, T/C [48] 93.7% | viability, T/C [23] 98.8% | viability, T/C [24] 99.9% | viability, T/C [49] 107% | viability, T/C [50] 103% | viability, T/C [51] 106% | viability, T/C [52] 91.7% | viability, T/C [29] 88.6% | viability, T/C [30] 110% | viability, T/C [53] 107% | viability, T/C [54] 99.5% | viability, T/C [55] 107% | viability, T/C [56] 101% | viability, T/C [35] 101% | viability, T/C [36] 96.7% | viability, T/C [57] 107% | viability, T/C [58] 107% | viability, T/C [59] 104% | viability, T/C [60] 87.7%
< 5.00: pIC50 (second compound 0.0316 µM) | pIC50 (second compound 0.1 µM) | pIC50 (second compound 0.316 µM) | pIC50 (second compound 1 µM) | pIC50 (second compound 3.16 µM) | pIC50 (second compound 10 µM)
